According to paper PMC2597681 (Biochemistry, 2008):
Read-outs that look alike come from different tables or passages of the source.

How the values were obtained:
[1] = target: T1, bovine heart mitochondrial complex I (NADH-ubiquinone oxidoreductase) (Bos taurus, UniProt P03887+P17694); test: NADH oxidase activity in SMP; format: biochemical
ND1 subunit [2] = target: T2, ND1 subunit (Bos taurus, UniProt P03887+P17694); test: Suppression of specific photoaffinity labeling of the ND1 subunit by [125I]TDA; format: binding, bovine; settings: [125I]TDA 3 nM; SMP 0.3 mg of protein/mL
T2 sequence (P03887 whole entry): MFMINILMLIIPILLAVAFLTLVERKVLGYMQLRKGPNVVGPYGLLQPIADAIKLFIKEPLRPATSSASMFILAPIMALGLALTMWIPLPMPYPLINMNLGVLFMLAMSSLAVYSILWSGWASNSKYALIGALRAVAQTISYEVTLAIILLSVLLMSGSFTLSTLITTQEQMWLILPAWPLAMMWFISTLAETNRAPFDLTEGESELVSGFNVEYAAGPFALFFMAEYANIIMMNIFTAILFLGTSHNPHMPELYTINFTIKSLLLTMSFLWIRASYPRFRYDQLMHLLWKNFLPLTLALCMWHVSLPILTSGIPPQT
T2 sequence (P17694 34-463): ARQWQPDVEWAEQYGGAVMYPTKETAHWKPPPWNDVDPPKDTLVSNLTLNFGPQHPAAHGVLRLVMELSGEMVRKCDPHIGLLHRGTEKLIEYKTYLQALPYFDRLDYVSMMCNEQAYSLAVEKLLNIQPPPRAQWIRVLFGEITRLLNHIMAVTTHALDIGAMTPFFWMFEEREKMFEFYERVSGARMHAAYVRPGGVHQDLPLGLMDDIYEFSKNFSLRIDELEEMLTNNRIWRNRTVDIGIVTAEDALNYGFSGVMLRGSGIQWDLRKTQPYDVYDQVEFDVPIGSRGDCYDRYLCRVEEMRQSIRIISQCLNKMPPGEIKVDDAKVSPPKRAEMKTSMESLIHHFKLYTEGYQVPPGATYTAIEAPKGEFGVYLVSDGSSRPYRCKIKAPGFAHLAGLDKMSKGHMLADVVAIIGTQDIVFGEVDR
T2 sequence (P42026 38-216 partner): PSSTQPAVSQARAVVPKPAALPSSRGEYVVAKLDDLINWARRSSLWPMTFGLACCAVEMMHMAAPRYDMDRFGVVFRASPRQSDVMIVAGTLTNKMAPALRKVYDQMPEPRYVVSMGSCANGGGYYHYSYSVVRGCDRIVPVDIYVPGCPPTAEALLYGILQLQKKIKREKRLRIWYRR

[3] = system: 49 kDa subunit and an unidentified subunit of complex I; test: Suppression of specific binding of [125I]AFP to SMP; design: species or system bovine; settings: [125I]AFP 6 nM; competitor 60, 600 or 6,000 nM; SMP 1.0 mg of protein/mL
[4] = target: T1, bovine heart mitochondrial complex I (NADH-ubiquinone oxidoreductase); settings: ref [27]; cited from earlier work
[5] = target: bovine heart mitochondrial complex I (ubiquinol-NAD+ oxidoreductase activity) (Bos taurus, UniProt P03887+P17694); settings: ref [27]; cited from earlier work
Sequence of bovine heart mitochondrial complex I (ubiquinol-NAD+ oxidoreductase activity) (P17694 34-463): as the sequence (P17694 34-463) above
Sequence of bovine heart mitochondrial complex I (ubiquinol-NAD+ oxidoreductase activity) (P03887 whole entry): as the sequence (P03887 whole entry) above
Sequence of bovine heart mitochondrial complex I (ubiquinol-NAD+ oxidoreductase activity) (P42026 38-216 partner): as the sequence (P42026 38-216 partner) above

ND1 subunit [6] = target: T2, ND1 subunit; settings: ref [19]; cited from earlier work

T1 sequence (P17694 34-463): as the sequence (P17694 34-463) above
T1 sequence (P03887 whole entry): as the sequence (P03887 whole entry) above
T1 sequence (P42026 38-216 partner): as the sequence (P42026 38-216 partner) above

Row | SMILES | IC50 [1] | Suppression of specific binding of [125I]TDA to ND1 (in words) (ND1 subunit [2]) | Suppression of specific labeling of the two subunits by [125I]AFP (in words) [3] | IC50 values, Forward electron transfer [4] | IC50 (R)/IC50 (F), ratio of IC50 (reverse)/IC50 (forward) [5] | IC50 values, Reverse electron transfer [5] | Suppression of specific binding of [125I]TDA to ND1 (in words) (ND1 subunit [6])
1 | CCCCCCCCCCC(O)C1CCC(C2CCC(C(O)CCCCCCCCCCC(O)CC3=CC(C)OC3=O)O2)O1 (stereo not drawn) [Bullatacin, bullatacin] | 0.85 nM | suppressed the specific binding more efficiently than the piperazines | suppressed the radiolabeling | 46 ± 5.2 pmol inhibitor/mg of protein | 0.61 | 28 ± 4.4 pmol inhibitor/mg of protein | 
2 | C/C=C(\C)[C@H](O)[C@H](C)/C=C(C)/C=C/C/C(C)=C/Cc1nc(OC)c(OC)c(O)c1C [piericidin A] |  |  |  | 81 ± 7.1 pmol inhibitor/mg of protein | 0.59 | 48 ± 4.3 pmol inhibitor/mg of protein | completely suppress
3 | CC(C)(C)c1ccc(CSc2cnn(C(C)(C)C)c(=O)c2Cl)cc1 [pyridaben] |  |  | suppressed the radiolabeling |  |  |  | completely suppress
4 | Cc1nn(C)c(Oc2ccccc2)c1C=NOCc1ccc(C(=O)OC(C)(C)C)cc1 [fenpyroximate] |  |  | suppressed the radiolabeling |  |  |  | completely suppress
5 | C=C(C)[C@H]1Cc2c(ccc3c2O[C@@H]2COc4cc(OC)c(OC)cc4[C@@H]2C3=O)O1 [rotenone] |  |  | suppressed the radiolabeling |  |  |  | 
